Here are results for 21 molecules from patent US9174984B2, “Chemical compounds” (GlaxoSmithKline Intellectual Property (No. 2) Limited, priority 2011, dated 2015).

Several values for one entry are separate records, joined by “and”; a condition that tells them apart may be missing. Identical values can stand only once. Like-named read-outs stand apart in the source and are kept apart here.

In one assay the target is T1, Human full-length DNMT1 (Homo sapiens, UniProt P26358).
T1 construct: Human full-length DNMT1 enzyme purchased from BPS Biosciences; purchased BPS Biosciences
T1 sequence (P26358 whole entry): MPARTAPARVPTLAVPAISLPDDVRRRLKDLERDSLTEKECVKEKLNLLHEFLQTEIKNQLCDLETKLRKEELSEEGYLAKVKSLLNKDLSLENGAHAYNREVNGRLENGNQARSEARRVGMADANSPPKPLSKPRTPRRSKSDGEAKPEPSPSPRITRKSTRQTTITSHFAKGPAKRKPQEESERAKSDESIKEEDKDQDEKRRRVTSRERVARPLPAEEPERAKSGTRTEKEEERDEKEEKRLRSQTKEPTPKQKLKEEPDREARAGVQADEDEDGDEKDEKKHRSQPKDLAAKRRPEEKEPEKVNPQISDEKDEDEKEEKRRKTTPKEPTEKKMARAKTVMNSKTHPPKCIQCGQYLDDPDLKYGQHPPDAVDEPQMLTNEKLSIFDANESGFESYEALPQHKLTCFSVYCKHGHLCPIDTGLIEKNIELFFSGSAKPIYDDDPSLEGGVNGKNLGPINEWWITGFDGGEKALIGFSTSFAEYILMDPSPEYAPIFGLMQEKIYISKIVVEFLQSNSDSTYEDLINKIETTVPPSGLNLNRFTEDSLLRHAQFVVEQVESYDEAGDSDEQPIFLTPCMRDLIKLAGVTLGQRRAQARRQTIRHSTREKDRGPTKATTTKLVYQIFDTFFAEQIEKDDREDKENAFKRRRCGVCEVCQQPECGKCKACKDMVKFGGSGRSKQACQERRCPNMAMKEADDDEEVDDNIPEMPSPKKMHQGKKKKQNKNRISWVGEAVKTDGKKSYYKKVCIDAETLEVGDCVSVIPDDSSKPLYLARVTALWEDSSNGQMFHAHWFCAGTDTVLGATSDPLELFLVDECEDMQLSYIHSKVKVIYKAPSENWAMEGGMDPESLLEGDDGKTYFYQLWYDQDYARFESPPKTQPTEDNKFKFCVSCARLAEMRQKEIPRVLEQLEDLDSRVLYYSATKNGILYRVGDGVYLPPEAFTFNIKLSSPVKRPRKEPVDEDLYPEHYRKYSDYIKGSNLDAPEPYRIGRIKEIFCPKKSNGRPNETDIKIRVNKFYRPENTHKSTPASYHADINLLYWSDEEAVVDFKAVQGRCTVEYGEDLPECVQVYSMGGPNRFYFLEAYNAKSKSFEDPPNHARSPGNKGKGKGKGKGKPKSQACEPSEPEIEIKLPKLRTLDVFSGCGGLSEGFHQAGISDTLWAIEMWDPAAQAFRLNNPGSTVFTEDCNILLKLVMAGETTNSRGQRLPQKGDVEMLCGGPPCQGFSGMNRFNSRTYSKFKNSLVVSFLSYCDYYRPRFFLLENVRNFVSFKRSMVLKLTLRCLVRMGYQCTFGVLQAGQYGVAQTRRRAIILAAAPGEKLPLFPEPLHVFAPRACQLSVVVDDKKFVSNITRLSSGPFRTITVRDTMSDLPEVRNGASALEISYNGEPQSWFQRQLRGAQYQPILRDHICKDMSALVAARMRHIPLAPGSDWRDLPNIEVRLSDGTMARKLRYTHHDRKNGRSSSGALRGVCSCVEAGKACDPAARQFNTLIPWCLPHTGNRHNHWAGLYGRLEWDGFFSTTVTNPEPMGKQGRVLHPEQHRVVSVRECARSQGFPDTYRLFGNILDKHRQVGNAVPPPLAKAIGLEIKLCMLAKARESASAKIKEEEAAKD
Kind of assay: DNMT inhibition assay (3H-SAM filter-binding) against DNMT1. The format is biochemical.

In another assay the target is T2, Human DNMT3b/3L (Homo sapiens, UniProt Q9UBC3).
T2 construct: truncated 3b (catalytic domain)
Kind of assay: DNMT inhibition assay (3H-SAM filter-binding) against DNMT3b/3L. The format is biochemical. The conditions noted are these: read-out: IC50 against DNMT 3b/3L. As to the method: DNMT Assays Used for Examples 1-114
Human DNMT3b/3L was coexpressed using truncated 3b (catalytic domain) and 3L (DNA binding domain) at GSK. Human full-length DNMT1 enzyme purchased from BPS Biosciences. Poly(dIdC) DNA (Sigma) was used at 0.002 mg/mL. Tritiated SAM (Perkin Elmer) was used at 500 nM. DNA, DNMT enzyme, and inhibitors were mixed with assay buffer (20 mM Tris pH8, 5% glycerol, 1 mM EDTA, 100 μg/mL BSA, 1 mM DTT, 50 mM NaCl) and pre-incubated without SAM for 30 min. H3 SAM was then added to initiate the methylation reaction which continues at 37° C. for 1 h. Reaction mixture was then transferred to a filter plate (Millipore Multiscreen HTS DE), then washed with 50 mM H2PO4 and 95% Ethanol. Scintillation counts were measured on the Perkin Elmer Microbeta scintillation counter.
DNMT Assays Used for Examples 115-120
DNMT enzymes were produced by GlaxoSmithKline. Human DNMT3b/3L was coexpressed using truncated 3b (catalytic domain) and 3L (DNA binding domain). DNMT1 was human, full-length protein. 3H-SAM was purchased from Perkin Elmer. Custon DNA oligonucleotide substrates were purchased from Integrated DNA technologies.
28-mer DNA Oligonucleotide Duplex (for DNMT3b/3L)
DNMT enzyme was preincubated with compound for 1 hr at RT, after which SAM and DNA were added to initiate the methylation reaction. The methylation reaction was quenched after 20 min upon the addition of >100 fold excess non-radioactive SAM. The quenched reaction mixture (80%) was transferred to a DEAE filter binding plate (Millipore Multiscreen HTS DE), washed with 3 volumes of 50 mM phosphate buffer and dried. Scintillation cocktail (MicroScint-20) was added to the plate and radioactivity (3H-DNA) was measured using a Perkin Elmer TopCount scintillation counter.
Final reagent concentrations (prior to quench) consisted of the following:
DNMT3b/3L (10 nM), 200 nM DNA, 200 nM 3H-SAM in 20 mM Tris (pH 8), 1 mM DTT, 1 mM EDTA, 25 mM NaCl, 1 mM CHAPS and 2% DMSO.

The mark [1] stands for this setting: at least one experimental run or average of several runs, Examples 1-114 and 115-120 use different protocols.

On to `O=C(C#Cc1ccc(F)cc1)NCCNC(=S)NCc1ccnc2[nH]ccc12` [Example 85, N-(2-(3-((1H-pyrrolo[2,3-b]pyridin-4-yl)methyl)thioureido)ethyl)-3-(4-fluorophenyl)propiolamide], for which, at Human full-length DNMT1 (setting [1]), the IC50 is 19.1 to 300 µM and ≤ 200 µM.
With `C=CC(=O)Nc1cc(CNC(=S)NCc2ccnc3[nH]ccc23)cc(C(F)(F)F)c1` [Example 35, N-(3-((3-((1H-pyrrolo[2,3-b]pyridin-4-yl)methyl)thioureido)methyl)-5-(trifluoromethyl)phenyl)acrylamide], the IC50 on Human DNMT3b/3L (setting [1]) is no more than 20 µM; on Human full-length DNMT1 (setting [1]), 19.1 to 300 µM.
As for `O=C(C#Cc1cccc(F)c1)NCCNC(=S)NCc1ccnc2[nH]ccc12` [Example 86, N-(2-(3-((1H-pyrrolo[2,3-b]pyridin-4-yl)methyl)thioureido)ethyl)-3-(3-fluorophenyl)propiolamide], the IC50 on Human full-length DNMT1 (setting [1]) is 19.1 to 300 µM and 75 µM and ≤ 100 µM.
The same measure, in the same setting: under `NCC(=O)Nc1ccccc1CNC(=S)NCc1ccnc2[nH]ccc12` [Example 114, N-(2-((3-((1H-Pyrrolo[2,3-b]pyridin-4-yl)methyl)thioureido)methyl)phenyl)-2-aminoacetamide] stands 19.1 to 300 µM and ≤ 200 µM.
Turning to `O=C(C#Cc1ccc([N+](=O)[O-])cc1)NCCNC(=S)NCc1ccnc2[nH]ccc12` [Example 87, N-(2-(3-((1H-pyrrolo[2,3-b]pyridin-4-yl)methyl)thioureido)ethyl)-3-(4-nitrophenyl)propiolamide], the IC50 is no more than 1 µM at Human DNMT3b/3L (setting [1]); 19.1 to 300 µM and ≤ 100 µM at Human full-length DNMT1 (setting [1]).
Regarding `COc1ccc(C#CC(=O)NCCNC(=S)NCc2ccnc3[nH]ccc23)cc1OC` [Example 92, N-(2-(3-((1H-pyrrolo[2,3-b]pyridin-4-yl)methyl)thioureido)ethyl)-3-(3,4-dimethoxyphenyl)propiolamide], the IC50 on Human full-length DNMT1 (setting [1]) is 19.1 to 300 µM and ≤ 100 µM.
The same measure, in the same setting: under `NC(CCCCNC(=S)NCc1ccnc2[nH]ccc12)C(=O)O` (centres unmarked) [Example 46, 6-(3-((1H-pyrrolo[2,3-b]pyridin-4-yl)methyl)thioureido)-2-aminohexanoic acid] stands 19.1 to 300 µM; under `O=C(C#Cc1ccc(Cl)cc1)NCCNC(=S)NCc1ccnc2[nH]ccc12` [Example 89, N-(2-(3-((1H-pyrrolo[2,3-b]pyridin-4-yl)methyl)thioureido)ethyl)-3-(4-chlorophenyl)propiolamide], 19.1 to 300 µM and ≤ 200 µM.
Still for that read-out and setting: to `C=CC(=O)Nc1ccc([N+](=O)[O-])cc1CNC(=S)NCc1ccnc2[nH]ccc12` [Example 110, N-(2-((3-((1H-Pyrrolo[2,3-b]pyridin-4-yl)methyl)thioureido)methyl)-4-nitrophenyl)acrylamide] belongs 19.1 to 300 µM.
On to `S=C(NCc1ccccc1C1CCCNC1)NCc1ccnc2[nH]ccc12` (centres unmarked) [Example 116, 1-((1H-pyrrolo[2,3-b]pyridin-4-yl)methyl)-3-(2-(piperidin-3-yl)benzyl)thiourea], for which the figures for the IC50 on Human DNMT3b/3L (setting [1]) and at Human full-length DNMT1 (setting [1]) were no more than 10 µM and no more than 100 µM, respectively.
Take `COCC#CC(=O)Nc1cccc(CNC(=S)NCc2ccnc3[nH]ccc23)c1` [Example 41, N-(3-((3-((1H-pyrrolo[2,3-b]pyridin-4-yl)methyl)thioureido)methyl)phenyl)-4-methoxybut-2-ynamide]: the IC50 was no more than 1 µM on Human DNMT3b/3L; 19.1 to 300 µM and ≤ 200 µM at Human full-length DNMT1 (read-out: IC50 against DNMT 1).
As to `Nc1ccc([N+](=O)[O-])cc1CNC(=S)NCc1ccnc2[nH]ccc12` [Example 30, 1-((1H-pyrrolo[2,3-b]pyridin-4-yl)methyl)-3-(2-amino-5-nitrobenzyl)thiourea], on Human full-length DNMT1 (setting [1]), the IC50 is 19.1 to 300 µM and ≤ 100 µM.
Same read-out and setting: under `Cc1ccc(C#CC(=O)NCCNC(=S)NCc2ccnc3[nH]ccc23)cc1` [Example 88, N-(2-(3-((1H-pyrrolo[2,3-b]pyridin-4-yl)methyl)thioureido)ethyl)-3-(p-tolyl)propiolamide] stands 19.1 to 300 µM.
With `CC#CC(=O)Nc1ccccc1CNS(=O)(=O)NCc1ccnc2[nH]ccc12` [Example 42, N-(2-(((N-((1H-pyrrolo[2,3-b]pyridin-4-yl)methyl)sulfamoyl)amino)methyl)phenyl)but-2-ynamide], the IC50 at Human DNMT3b/3L (setting [1]) is no more than 20 µM; at Human full-length DNMT1 (setting [1]), 19.1 to 300 µM.
For the molecule `O=C(C#Cc1ccc2c(c1)OCO2)NCCNC(=S)NCc1ccnc2[nH]ccc12` [Example 93, N-(2-(3-((1H-pyrrolo[2,3-b]pyridin-4-yl)methyl)thioureido)ethyl)-3-(benzo[d][1,3]dioxol-5-yl)propiolamide], on Human full-length DNMT1 (setting [1]), the IC50 was 19.1 to 300 µM and ≤ 100 µM.
For the molecule `C=CC(=O)Nc1cc(CNC(=S)NCc2ccnc3[nH]ccc23)ccc1Cl` [Example 76, N-(5-((3-((1H-pyrrolo[2,3-b]pyridin-4-yl)methyl)thioureido)methyl)-2-chlorophenyl)acrylamide], the IC50 at Human DNMT3b/3L (setting [1]) is no more than 1 µM.
Molecule `Nc1ccccc1CNC(=S)NCc1ccnc2[nH]ccc12` [Example 26, 1-((1H-pyrrolo[2,3-b]pyridin-4-yl)methyl)-3-(2-aminobenzyl)thiourea] registered an IC50 at Human full-length DNMT1 (setting [1]) of 19.1 to 300 µM.
For `O=C(NCc1ccnc2[nH]cc(Cl)c12)NC1CCN(C(=O)C#Cc2ccccc2)C1` (centres unmarked) [Example 64, 1-((3-chloro-1H-pyrrolo[2,3-b]pyridin-4-yl)methyl)-3-(1-(3-phenylpropioloyl)pyrrolidin-3-yl)urea], the IC50 on Human DNMT3b/3L was no more than 10 µM.
Regarding `C=CC(=O)Nc1ccc(C(F)(F)F)cc1CNC(=S)NCc1ccnc2[nH]ccc12` [Example 33, N-(2-((3-((1H-pyrrolo[2,3-b]pyridin-4-yl)methyl)thioureido)methyl)-4-(trifluoromethyl)phenyl)acrylamide], the IC50 on Human DNMT3b/3L (setting [1]) is no more than 20 µM.
Still for that read-out and setting: under `O=C(C#CC1CCCC1)Nc1cccc(CNC(=O)NCc2ccnc3[nH]ccc23)c1` [Example 118, N-(3-((3-((1H-pyrrolo[2,3-b]pyridin-4-yl)methyl)ureido)methyl)phenyl)-3-cyclopentylpropiolamide] stands no more than 1 µM.
As for `O=C(C#Cc1ccccc1)NCCCC(=O)NCc1ccnc2[nH]ccc12` [Example 18, N-((1H-pyrrolo[2,3-b]pyridin-4-yl)methyl)-4-(3-phenylpropiolamido)butanamide], the IC50 on Human DNMT3b/3L was no more than 1 µM.
